In patent US20250313569A1, “Pharmaceutical Compounds And Compositions As Modulators Of MAS-Related G-Protein Receptor X2” (Enanta Pharmaceuticals, Inc., priority 2024, published 2025):
pEC50: −log10 of the molar value.

Legend:
human MRGPRX2 = target: T1, human MRGPRX2 (Homo sapiens, UniProt Q96LB1); experiment: MRGPRX2 IP-1 Gq HTRF assay in HEK293 cells stably expressing human MRGPRX2, Cortistatin-14 at EC75; assay type: cell-based; conditions: 2 hours at 37° C., cellular IP-1
T1 construct: expressed in transfected cells; host or cells: HEK293
T1 sequence (Q96LB1 1-330): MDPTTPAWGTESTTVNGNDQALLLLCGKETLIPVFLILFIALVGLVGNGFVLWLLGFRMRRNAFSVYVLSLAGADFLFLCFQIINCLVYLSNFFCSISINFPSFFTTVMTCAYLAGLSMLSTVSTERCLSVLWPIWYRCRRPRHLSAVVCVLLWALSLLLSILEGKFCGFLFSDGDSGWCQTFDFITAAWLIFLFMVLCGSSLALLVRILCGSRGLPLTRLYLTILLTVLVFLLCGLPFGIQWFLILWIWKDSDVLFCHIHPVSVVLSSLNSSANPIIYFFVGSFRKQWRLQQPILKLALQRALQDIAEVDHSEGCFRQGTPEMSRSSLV
Protocol: HEK293 cells stably expressing human MRGPRX2 were grown in Dulbecco's Modified Eagle Medium (DMEM) supplemented with 10% fetal bovine serum (FBS), 1% Glutamax, and 1 μg/mL of puromycin. Cells were maintained in a 37° C., 5% CO2 humidified incubator.
Cells were plated in a 384-well assay plate at a density of 20,000 cells per well overnight. Compounds were solubilized at 10 mM in DMSO and added as a 10-point curve using an ECHO acoustic liquid handler. On the day of the assay, Cortistatin-14 was diluted in assay buffer (provided by IP-One-Gq-HTRF kit purchased from Cisbio, 62IPAPEJ) and added to the assay plate at a final concentration corresponding to the predetermined EC75. Plates were incubated at 37° C. for 2 hours prior to addition of HTRF detection reagents per the manufacturer's instructions. The plates were read on a Perkin Elmer Envision plate reader. The HTRF ratio and cellular IP-1 levels were calculated. XLfit was used to calculate an EC50 value for each compound using a 4-parameter logistic curve fitting model. EC50 ranges are reported as follows: A<100 nM; B 0.1-1 μM; C>1 μM.

MRGPRX2 LAD2 = target: T2, MRGPRX2 LAD2 (Homo sapiens, UniProt Q96LB1); experiment: LAD2 β-hexosaminidase release assay (degranulation), Cortistatin-14 at EC75; assay type: cell-based; conditions: LAD2 cells; 1 hour compound incubation, Cortistatin-14 at EC75 for 30 minutes; percent degranulation (β-hexosaminidase)
T2 construct: host or cells: LAD2 human mast cells
T2 sequence (Q96LB1 1-330): T1 sequence (Q96LB1 1-330)
Protocol: LAD2 cells obtained from the NIH were cultured in StemPro34 (Gibco) serum-free media supplemented with GlutaMax, penicillin and streptomycin, and 100 ng/mL SCF (Invitrogen). Cells were maintained in a 37° C., 5% CO2 humidified incubator at a concentration of 2-5E5 cells/mL, with hemidepletion once a week.
One day prior to the assay, cells were starved of SCF at a concentration of 2.3E5 cells/mL. On the day of the assay cells were washed twice in Tyrode's Buffer containing 0.04% BSA (assay buffer) and plated in a 96 well-v-bottom assay plate at 20,000 cells per well in 80 μL of assay buffer. Compounds were solubilized at 10 mM DMSO and added as a 10-fold overconcentrated 8-point curve in assay buffer in a volume of 10 μL using the JANUS liquid handler. Assay plates were incubated for 1 hour at 37° C. Cortistatin-14 was diluted in assay buffer to […] its predetermined EC75 and added to the assay plates in a volume of 10 μL. Assay plates were incubated at 37° C. for 30 minutes. After incubation, cells were pelleted and 50 μL of supernatant from each well was transferred to a 96 well flat bottom plate containing 100 μL of substrate solution (3.5 mg/mL p-Nitrophenyl-N-acetyl-β-D-glucosaminide (Sigma Aldrich) in 40 mM Citrate Buffer (Thermo Fisher)). The remaining cell pellets were lysed with 150 μL of 0.1% Triton-X-100 and mixed thoroughly. 50 μL of lysate was transferred to a 96-well flat bottom plate containing 100 μL of substrate solution. Plates with supernatants and lysates were incubated at 37° C. for 90 minutes prior to addition of 50 μL of 400 mM Glycine buffer (pH 10.7). The plates were read on a Perkin Elmer Envision plate reader at an Abs of 405 nanometers. Percent degranulation was calculated and Xlfit was used to calculate an EC50 value for each compound using a 4-parameter logistic curve fitting model. EC50 ranges are reported as follows: A<100 nM; B 0.1-1 μM; C>1 μM.

| Structure (SMILES) | pEC50 (human MRGPRX2) | pEC50 (MRGPRX2 LAD2) |
| --- | --- | --- |
| CC(=O)N1C[C@H](Nc2cc(C(F)(F)F)nc3ccc(Cl)cc23)C[C@H](N(C)C(=O)c2cnn(C)c2)C1 [Example 47] | < 6.00 | – |
| CC(=O)N1C[C@@H](NC(=O)c2cnn(C3CC3)c2)C[C@@H](Nc2cc(C(F)(F)F)nc3ccc(Cl)cc23)C1 [Example 32] | 6.00 to 7.00 | 6.00 to 7.00 |
| CS(=O)(=O)Nc1cccc(C(=O)N[C@H]2CC(Nc3cc(C(F)(F)F)nc4ccc(Cl)cc34)CN(C(=O)Nc3ccccc3)C2)c1 (stereo partly drawn) [Example 20] | 6.00 to 7.00 | – |
| CS(=O)(=O)Nc1cccc(C(=O)N[C@H]2C[C@@H](Nc3cc(C(F)(F)F)nc4ccc(Cl)cc34)CN(C(=O)c3ccccc3)C2)c1 [Example 1] | 6.00 to 7.00 | > 7.00 |
| CS(=O)(=O)Nc1cccc(C(=O)N[C@H]2CC(Nc3cc(C(F)(F)F)nc4ccc(Cl)cc34)CN(C(=O)C3CCC3)C2)c1 (stereo partly drawn) [Example 17] | 6.00 to 7.00 | – |
| CNC(=O)N1C[C@@H](NC(=O)c2cccc(NS(C)(=O)=O)c2)C[C@@H](Nc2cc(C(F)(F)F)nc3ccc(Cl)cc23)C1 [Example 9] | 6.00 to 7.00 | 6.00 to 7.00 |
| CC(C)(C)OC(=O)N1C[C@@H](NC(=O)c2cccc(NS(C)(=O)=O)c2)C[C@@H](Nc2cc(C(F)(F)F)nc3ccc(Cl)cc23)C1 [Example 6] | 6.00 to 7.00 | – |
| CS(=O)(=O)Nc1cccc(-c2cn([C@@H]3CNC[C@H](Nc4cc(C(F)(F)F)nc5ccc(Cl)cc45)C3)nn2)c1 [Example 54, N-(3-(1-((3S,5R)-5-((6-Chloro-2-(trifluoromethyl)quinolin-4-yl)amino)piperidin-3-yl)-1H-1,2,3-triazol-4-yl)phenyl) methanesulfonamide] | 6.00 to 7.00 | – |
| CC(=O)N1C[C@@H](NC(=O)c2ccc(C(F)(F)F)cc2)C[C@@H](Nc2cc(C(F)(F)F)nc3ccc(Cl)cc23)C1 [Example 67] | 6.00 to 7.00 | – |
| CS(=O)(=O)Nc1cccc(C(=O)N[C@@H]2CNC[C@H](Nc3ccc(C#N)c(C(F)(F)F)c3)C2)c1 [Example 45] | < 6.00 | – |
| CC(=O)N1C[C@@H](NC(=O)c2ccc(OC(F)(F)F)cc2)C[C@@H](Nc2cc(C(F)(F)F)nc3ccc(Cl)cc23)C1 [Example 66] | 6.00 to 7.00 | – |
| CS(=O)(=O)Nc1cccc(C(=O)N[C@H]2CC(N(C(=O)C3CC3)c3cc(C(F)(F)F)nc4ccc(Cl)cc34)CN(C(=O)C3CC3)C2)c1 (stereo partly drawn) [Example 18] | 6.00 to 7.00 | – |
| CC(=O)N1C[C@@H](NC(=O)c2cccc(NS(=O)(=O)C(F)(F)F)c2)C[C@@H](Nc2cc(C(F)(F)F)nc3ccc(Cl)cc23)C1 [Example 43] | 6.00 to 7.00 | > 7.00 |
| CC(=O)N1C[C@@H](NC(=O)c2ccc(F)cc2F)C[C@@H](Nc2cc(C(F)(F)F)nc3ccc(Cl)cc23)C1 [Example 27] | 6.00 to 7.00 | – |
| CN(C)C(=O)N1C[C@@H](NC(=O)c2cccc(NS(C)(=O)=O)c2)C[C@@H](Nc2cc(C(F)(F)F)nc3ccc(Cl)cc23)C1 [Example 10] | 6.00 to 7.00 | > 7.00 |
| CC(=O)N1C[C@@H](NC(=O)c2ccc(F)c(F)c2)C[C@@H](Nc2cc(C(F)(F)F)nc3ccc(Cl)cc23)C1 [Example 26] | 6.00 to 7.00 | – |
| CS(=O)(=O)Nc1cccc(C(=O)N[C@H]2CC(Nc3cc(C(F)(F)F)nc4ccc(Cl)cc34)CN(C(=O)c3cccnc3)C2)c1 (stereo partly drawn) [Example 19] | 6.00 to 7.00 | – |
| CS(=O)(=O)Nc1cccc(C(=O)N[C@H]2C[C@@H](Nc3cc(C(F)(F)F)nc4ccc(Cl)cc34)CN(S(C)(=O)=O)C2)c1 [Example 3] | 6.00 to 7.00 | > 7.00 |

Results, then the molecule that gave them:

| pEC50 (human MRGPRX2) | pEC50 (MRGPRX2 LAD2) | Structure (SMILES) |
| --- | --- | --- |
| 6.00 to 7.00 | > 7.00 | CS(=O)(=O)Nc1cccc(C(=O)N[C@H]2C[C@@H](Nc3cc(C(F)(F)F)nc4ccc(Cl)cc34)CN(C(=O)C(F)(F)F)C2)c1 [Example 8] |
| > 7.00 | > 7.00 | COc1ccc(C(=O)N[C@H]2C[C@@H](Nc3cc(C(F)(F)F)nc4ccc(Cl)cc34)CN(C(C)=O)C2)cc1 [Example 25] |
| 6.00 to 7.00 | > 7.00 | CC(=O)N1C[C@@H](NC(=O)c2cccc(C(C)(C)O)c2)C[C@@H](Nc2cc(C(F)(F)F)nc3ccc(Cl)cc23)C1 [Example 41] |
| > 7.00 | > 7.00 | CS(=O)(=O)Nc1cccc(C(=O)N[C@@H]2COC[C@H](Nc3cc(C(F)(F)F)nc4ccc(Cl)cc34)C2)c1 (racemic) [Example 44, N-(cis-5-((6-chloro-2-(trifluoromethyl)quinolin-4-yl)amino)tetrahydro-2H-pyran-3-yl)-3-(methylsulfonamido)benzamide] |
| > 7.00 | > 7.00 | CC(=O)N1C[C@@H](NC(=O)c2cccc(NS(C)(=O)=O)c2)C[C@@H](Nc2cc(C(F)(F)F)nc3ccc(Cl)cc23)C1 [Example 2] |
| 6.00 to 7.00 | > 7.00 | CS(=O)(=O)Nc1cccc(C(=O)N[C@H]2C[C@@H](Nc3cc(C(F)(F)F)nc4ccc(Cl)cc34)CN(S(=O)(=O)c3ccccc3)C2)c1 [Example 4] |
| 6.00 to 7.00 | – | CC(C)(C)C(=O)N1C[C@@H](NC(=O)c2cccc(NS(C)(=O)=O)c2)C[C@@H](Nc2cc(C(F)(F)F)nc3ccc(Cl)cc23)C1 (racemic) [Example 15] |
| > 7.00 | > 7.00 | COC(=O)N1C[C@@H](NC(=O)c2cccc(NS(C)(=O)=O)c2)C[C@@H](Nc2cc(C(F)(F)F)nc3ccc(Cl)cc23)C1 [Example 5] |
| > 7.00 | – | COCC(=O)N1C[C@@H](NC(=O)c2cccc(NS(C)(=O)=O)c2)C[C@@H](Nc2cc(C(F)(F)F)nc3ccc(Cl)cc23)C1 [Example 14] |
| > 7.00 | – | CC(=O)N1C[C@@H](NC(=O)c2cn(C(F)F)nc2C(F)F)C[C@@H](Nc2cc(C(F)(F)F)nc3ccc(Cl)cc23)C1 [Example 59] |
| > 7.00 | – | CC(=O)N1C[C@@H](NC(=O)c2ccc3[nH]ncc3c2)C[C@@H](Nc2cc(C(F)(F)F)nc3ccc(Cl)cc23)C1 [Example 58] |
| > 7.00 | – | CS(=O)(=O)Nc1cccc(NC(=O)[C@@H]2COC[C@H](Nc3cc(C(F)(F)F)nc4ccc(Cl)cc34)C2)c1 [Example 53] |
| > 7.00 | > 7.00 | CC(=O)N1C[C@@H](NC(=O)c2cnn(CC(F)(F)F)c2)C[C@@H](Nc2cc(C(F)(F)F)nc3ccc(Cl)cc23)C1 [Example 29] |
| > 7.00 | > 7.00 | CC(=O)N1C[C@@H](NC(=O)c2cccc(C(F)F)c2)C[C@@H](Nc2cc(C(F)(F)F)nc3ccc(Cl)cc23)C1 [Example 42] |
| > 7.00 | – | CC(=O)N1C[C@@H](NC(=O)c2cn(CC(C)(C)O)nc2Cl)C[C@@H](Nc2cc(C(F)(F)F)nc3ccc(Cl)cc23)C1 [Example 65] |
| > 7.00 | > 7.00 | CC(=O)N1C[C@@H](NC(=O)c2cnn(C)c2)C[C@@H](Nc2cc(C(F)(F)F)nc3ccc(Cl)cc23)C1 [Example 30] |
| > 7.00 | – | CC(=O)N1C[C@@H](NC(=O)c2cccc(F)c2)C[C@@H](Nc2cc(C(F)(F)F)nc3ccc(Cl)cc23)C1 [Example 36] |
| > 7.00 | > 7.00 | CC(=O)N1C[C@@H](NC(=O)c2cccc(C#N)c2)C[C@@H](Nc2cc(C(F)(F)F)nc3ccc(Cl)cc23)C1 [Example 24] |
| > 7.00 | – | CC(=O)N1C[C@@H](NC(=O)c2ccc(F)cc2)C[C@@H](Nc2cc(C(F)(F)F)nc3ccc(Cl)cc23)C1 [Example 23] |
